Reference: patent US7341857B2, “Production of beta-hydroxypalmitate methyl esterase from Ideonella sp.0-0013 (FERM BP-08660)” (Incorporated Administrative Agency National Agriculture and …, priority 2003, dated 2008)

Columns and labels:
[1] = tested on: esterase derived from Ideonella sp. 0-0013 strain; test: Decomposing activities of methyl palmitate or methyl 3-hydroxypalmitate (Test Example 2, substrate selectivity); format: biochemical; conditions: for Decomposition: 0.5 mg of substrate; for Activity ratio: methyl 3-hydroxypalmitate = 100.0
Description: The culture broth obtained by cultivating the strain in the same manner as that in Example 1 was centrifuged to obtain a supernatant and microbial cells. The supernatant or the microbial cells were suspended in 200 μL of 10 mM potassium phosphate buffer (pH 7.0) containing 0.5 mg of methyl 3-hydroxypalmitate, and the resultant was allowed to react at 43° C. for 12 hours.
After completion of the reaction, 500 μL of dichloromethane was added to the reaction mixture to extract 3-hydroxypalmitic acid. The extract was subjected to gas chromatography (Stabilwax-DA, 30 m×0.53 mm×0.25 μm) to measure the decomposing activity of methyl 3-hydroxypalmitate.
0.5 mg of methyl palmitate or methyl 3-hydroxypalmitate was reacted and analyzed in the same manner as that in Example 1 and the decomposing activities of the compounds were measured in each case.

[2] = tested on: esterase derived from Ideonella sp. 0-0013 strain; test: Inhibition, activation and stabilization of the esterase; format: biochemical
Description: Methyl 3-hydroxypalmitate is detected by gas chromatography with a column of Stabilwax-DA, 30 m×0.53 mm×0.25 μm. The 3-hydroxypalmitic acid generated by hydrolysis of the ester can be detected by the same gas chromatography as described above. • (2) Optimal temperature for functioning: The optimal temperature of the enzyme of the present invention is 37° C. • (3) Optimal pH and stable pH range: pH 7 or more to pH 10 or less. • (4) Temperature stability: 97% of the enzyme is stable at 43° C., 54% of the enzyme is stable at 50° C., and 38% of the enzyme is stable at 60° C. • (5) Inhibition, activation, and stabilization: Activated by sodium ion and potassium ion, and inhibited by strontium ion, iron ion (divalent), and methyl palmitate. • (6) Molecular weight: About 46,500 Da (by SDS-PAGE), about 41,000 Da (by a gel filtration method). • (7) Isoelectric point: pI 4 (by polyacrylamide gel isoelectric focusing method).

Structure (SMILES): CCCCCCCCCCCCCC(O)CC(=O)OC (stereo not shown) [Methyl 3-hydroxypalmitate, methyl 3-hydroxypalmitate]
- hydrolytic activity relative to that for methyl palmitate [1]: about 5 times
- Decomposition [1]: 50.3%
- Activity ratio [1]: 100.0

Structure (SMILES): CCCCCCCCCCCCCCCC(=O)OC [Methyl palmitate, methyl palmitate]
- Decomposition [1]: 10.3%
- Activity ratio [1]: 20.5
- Inhibition, activation, and stabilization (effect on the esterase) [2]: inhibited

Structure (SMILES): [Fe+2] [iron ion (divalent)]
- Inhibition, activation, and stabilization (effect on the esterase) [2]: inhibited

Structure (SMILES): [K+] [potassium ion]
- Inhibition, activation, and stabilization (effect on the esterase) [2]: Activated

Structure (SMILES): [Na+] [sodium ion]
- Inhibition, activation, and stabilization (effect on the esterase) [2]: Activated

Structure (SMILES): [Sr+2] [strontium ion]
- Inhibition, activation, and stabilization (effect on the esterase) [2]: inhibited
